1 molecule from article PMC12463534, “Exploring the Anticancer Properties of 4-Phenylthiazole-Based Ru(II) and Os(II) Metallacycles Featuring 1-Methylimidazole as N-Donor Functionality” (Bioinorganic Chemistry and Applications, 2025) can be followed below.

The subject of one data set is SW480 cells. The experiment in a line: DCFH-DA assay, cellular ROS levels. It is filed as cell-based, human. The conditions noted are these: 2 h, concentration dependent.
Another data set relates to CT26 tumor. As to the kind of experiment: Anticancer activity in CT26 tumor-bearing BALB/c mice. It is filed as in vivo. Particulars: i.p. 50 mg/kg. As to the method:
Figure 5 Anticancer activity of 1c and 3c in vivo. CT26-bearing BALB/c mice were treated i.p. with 50 mg/kg for five consecutive days for 2 weeks. (a) Impact on tumor growth; data are presented as mean ± SEM. […] On Day 15, most of the animals were sacrificed and tissues collected for further analyses. Of each group, 4 animals were kept to assess the impact on overall survival, which is shown in (b). Statistical significance was tested by log-rank test and Mantel–Cox post-test, ^∗p < 0.01. (c) The ruthenium levels measured by ICP-MS in the collected tissue samples of the mice, which were sacrificed 2 h after the last treatment.
(§1) CT26 cells (5 × 10^5 cells in 50-μL serum-free medium) were injected subcutaneously (s.c.) into the right flank of 8–16-week-old BALB/c mice (Envigo Laboratories, San Pietro Al Natisone, Italy). After 3 days, therapy treatment started on five consecutive days for 2 weeks. Animals were treated i.p. with 50 mg/kg 1c and 3c (all dissolved in 10% DMSO in 0.9% NaCl, 12 mice per group). The solvent control animals received 10% DMSO in 0.9% NaCl. Every day, the animals were monitored for the overall health conditions and tumor size was measured regularly by caliper measurement. Tumor volumes (mm^3) were calculated using following formula: length × width^2/2. In the overall survival arm of the experiment, mice were sacrificed by cervical dislocation in the case of a tumor length > 20 mm or tumor ulceration or a decreased body weight of ∼20%. Tumor growth and possible side effects of the treatment were evaluated by daily recording the tumor size by caliper measurement and parameters of the animal's overall health conditions. In the tissue sampling arm at the experiment, the mice were sacrificed by cervical dislocation 2 h after the last treatment. Tumors as well as organs were collected. Additionally, blood was drawn and incubated for 25 min to allow blood clotting. To isolate serum and blood pellets, the blood was centrifuged for 10 min at 17,900 g at room temperature. The supernatant characterized as serum was transferred to a new tube and centrifuged again to remove residual red blood cells. All collected samples were stored at −20°C and further processed for platinum measurements via ICP-MS.

A short description of data set [1]: Ruthenium levels in tissues by ICP-MS. It is filed as in vivo. Particulars: CT26-bearing mice, 2 h after last injection. As to the method: Tumor-specific organs and blood serum, harvested from the other animals 2 h after the last injection (Figure 5(c)), were measured for the average ruthenium content by inductively coupled plasma mass spectrometry (ICP-MS) of tissue homogenates.
as §1, with “In the overall survival arm of the experiment, mice were sacrificed by cervical dislocation in the case of a tumor length > 20 mm or tumor ulceration or a decreased body weight of ∼20%.” left out
The ruthenium concentration was determined by ICP-MS analysis. Ruthenium and rhenium standards were derived from LabKings (LabKings B.V., The Netherlands). The total ruthenium content was determined with a quadrupole-based ICP-MS instrument Agilent 7800 (Agilent Technologies, Tokyo, Japan) equipped with the Agilent SPS 4 autosampler (Agilent Technologies, Tokyo, Japan) and a MicroMist nebulizer at a sample uptake rate of approximately 0.2 mL·min^−1. […] Argon was used as plasma gas (15 L·min^−1) and as carrier gas (∼1.08 L·min^−1). The integration time was set to 0.1 s, and measurements were performed in 6 replicates with 100 sweeps. Rhenium served as internal standard for ruthenium.

Data set [2] concerns HCT116 colorectal cancer cell line (2D). The experiment in a line: Resazurin assay, HCT116 2D (monolayer) culture. The conditions noted are these: read-out: IC50 2D, resazurin assay, 96 h exposure. (In general: Alamar Blue is a resazurin reagent that responds to reducing activity.)
Protocol: (§2) Both models were investigated by the fluorimetric resazurin assay after 96-h exposure.
(§3) HCT116 colorectal carcinoma cells (RRID:CVCL_0291 from ATCC) were cultivated in McCoy's 5A medium, supplemented with 10% heat-inactivated fetal bovine serum and 4 mM L-glutamine.
(§4) For 2D experiments, HCT116 cells were harvested from culture flasks by trypsinization, seeded in 100-μL aliquots into 96-well microculture plates (CytoOne, TC-treated, from Starlab) in densities of 2 × 10^3 cells per well, and incubated for 24 h prior to exposure to the test compounds. […] Stock solutions of test compounds were prepared in DMF, which were then diluted in McCoy's 5A-supplemented medium (not to exceed a final content of 0.5% v/v of organic solvent in the test plates), and serial dilutions were added in aliquots of 100 μL per well. […] After incubation for 4 h, fluorescence was measured with a microplate reader (Bio-Tek, SynergyHT) at a wavelength of 530 nm, additionally using a reference wavelength of 620 nm.
Data set [3] concerns A549 lung adenocarcinoma cells. As to the kind of experiment: MTT assay, inhibition of cancer cell growth, A549. The conditions noted are these: read-out: 50% inhibitory concentration A549, exposure time 96 h. On the technique in general: Tetrazolium dyes change colour on reduction, which living cells bring about.
Protocol: (§5) CH1/PA-1 ovarian teratocarcinoma cells (CH1, RRID: CVCL_4992, provided by L. R. Kelland, CRC Center for Cancer Therapeutics, Institute of Cancer Research, Sutton, UK; confirmed by STR profiling as PA-1 ovarian teratocarcinoma cells at Multiplexion, Heidelberg, Germany), SW480 colon adenocarcinoma (RRID: CVCL_0546), and A549 lung adenocarcinoma cells (NCI-H2618, RRID: CVCL_A549; both cell lines were obtained from the American Type Culture Collection (ATCC), Manassas, VA, USA) were grown as adherent cultures in 75-cm^2 culture flasks (Starlab, Hamburg, Germany) by using minimal essential medium (MEM) supplemented with 1 mM sodium pyruvate, 4 mM L-glutamine, 1% (v/v) nonessential amino acids from 100-fold stock (all purchased from Sigma-Aldrich), and 10% heat-inactivated fetal bovine serum (Serana, Pessin, Germany).
(§6) The 3-(4,5-dimethylthiazol-2-yl)-2,5-diphenyl-2H tetrazolium bromide (MTT, Acros Organics, Geel, Belgium) assay was used to detect the cytotoxicity of the compounds after 96-h incubation. For this purpose, cells were harvested from culture flasks by trypsinization, seeded in 100-μL aliquots into 96-well microculture plates (Starlab, UK) in densities of 1 × 10^3 (CH1/PA-1), 2 × 10^3 (SW480), and 3 × 10^3 (A549) cells per well and incubated for 24 h prior to exposure to the test compounds. Stock solutions of test compounds were prepared in DMF, which were then diluted in MEM (not to exceed a final content of 0.5% v/v of organic solvent in the test plates), and serial dilutions were added in aliquots of 100 μL per well. […] After incubation for 4 h, the medium/MTT mixtures were removed, and the produced formazan crystals were dissolved in 150 μL DMSO per well. Optical densities at 550 nm were measured spectrophotometrically with a ELx808 Absorbance Microplate Reader (Bio-Tek, Winooski, VT, USA) by using a reference wavelength of 690 nm to correct for unspecific absorption.
The subject of data set [4] is CH1/PA-1 ovarian teratocarcinoma cells. As to the kind of experiment: MTT assay, inhibition of cancer cell growth, CH1/PA-1. The conditions noted are these: read-out: 50% inhibitory concentration CH1, exposure time 96 h.
Protocol: as §5, §6
The test system of data set [5] is HCT116 multicellular tumor spheroids (3D). The experiment in a line: Resazurin assay, HCT116 3D multicellular tumor spheroids. The conditions noted are these: read-out: IC50 3D; HCT116 3D spheroids, resazurin assay, 96 h exposure.
Protocol: as §2, §3, §4
The nature of data set [6]: Stability and reactivity in aqueous solution (1H-NMR, UV-vis).
Protocol: The exact concentration of the metal complex stock solutions was calculated on weight-in-volume basis. Complexes were dissolved in water in 1–5 mM concentration.
The path length was 1 cm.
^1H-NMR spectroscopic studies were carried out on a Bruker FT-NMR spectrometer AV NEO 500.10 MHz and a Bruker Avance III HD Ascend 500 Plus instrument. All ^1H-NMR spectra were recorded using a standard Bruker noesygppr1d pulse sequence to suppress water resonance. […] Samples contained 10% (v/v) D2O with a complex concentration of ca. 1 mM. Samples were prepared in pH 1.3 aqueous HCl solution or in pH 7.4 PBS.

As to `Cc1ccc(C(C)C)cc1.Cn1cc[n+]([Ru-]2[c]3cc(S(C)(=O)=O)ccc3-c3csc[n+]32)c1.O=[N+]([O-])[O-]` [Compound 3c, [((3-κN)-1-Methylimidazole)(4-(4-(methylsulfonyl)phenyl)thiazolato-κN,κC2′)(η^6-p-cymene)ruthenium(II)] Nitrate], the “Effect on intracellular ROS levels” value in the data set with SW480 cells is given as “constantly decrease ROS levels with increasing concentrations”. In addition, the “Impact on overall survival” value in the data set with CT26 tumor (4 mice per group, log-rank test) was “significantly prolonged overall survival”. In addition, the “Impact on tumor volume (anticancer activity)” value in the data set with CT26 tumor (5 times a week for two weeks, did not reach statistical significance) is reported as “slight anticancer activity”. In addition, the “Survival of one animal” value in the data set with CT26 tumor (one animal) was 48 days. Besides, the “Ruthenium level in liver” value in data set [1] was roughly 20 mg/kg. Further, in data set [1], the “Ruthenium level in tumor” value was roughly 1 mg/kg. Also, the IC50 in data set [2] is greater than 200 µM; in data set [3] it was greater than 200 µM; in data set [4] it was 102 ± 11 µM; in data set [5], 226 ± 36 µM. Besides, the “Sensitivity to chloride: replacement of coordinated MeIm” value in data set [6] (3 M KCl, pH 7.4, UV-vis) is “could not replace coordinated MeIm”. Further, in data set [6] (PBS pH 7.4, 1 mM complex, 25°C, within 6 days, 1H-NMR), the “Decomposition at pH 7.4” value is “no decomposition”. For the same molecule, the “Behaviour in acidic solution” value in data set [6] (pH = 1.0 or 1.3 (HCl), followed in time up to 6 days, 1H-NMR/UV-vis) is “decomposition”. The “Spectral change at pH 10.0” value in data set [6] (pH = 10.0 (NaOH), within 2 days, UV-vis) is “no spectral change”.
